Experimental findings from US8455475B2 (Gruenenthal GmbH, priority 2009, dated 2013) are described below.

Test [1] deals with T1, human B1R (bradykinin receptor 1) (Homo sapiens, UniProt P46663).
T1 construct: expressed in transfected cells; host or cells: CHO K1 cells
T1 sequence (P46663 1-353): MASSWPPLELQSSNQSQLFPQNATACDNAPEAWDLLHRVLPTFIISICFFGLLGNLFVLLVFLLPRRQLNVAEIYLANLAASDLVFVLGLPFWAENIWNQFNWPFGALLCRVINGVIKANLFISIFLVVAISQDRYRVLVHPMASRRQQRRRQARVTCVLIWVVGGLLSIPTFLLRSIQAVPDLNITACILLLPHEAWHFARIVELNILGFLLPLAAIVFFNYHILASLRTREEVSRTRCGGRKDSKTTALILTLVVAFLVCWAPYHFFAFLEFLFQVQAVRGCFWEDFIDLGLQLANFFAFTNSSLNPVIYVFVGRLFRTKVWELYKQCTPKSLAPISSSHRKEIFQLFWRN
Nature of the test: FLIPR Ca2+ assay (Fluo-4) on CHO K1 cells stably transfected with the human B1R gene (hB1R cells): % inhibition at 10 μM / IC50, agonist Lys-Des-Arg9-bradykinin. Format: cell-based. The note with it: for inhibition at 10 µM: CHO-K1, human B1R. Summed up:
(§1)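 Antagonism is measured as the drop in peak Fluo-4 Ca2+ signal when the EC80 agonist follows 10–20 min compound exposure. The single-point screen uses 10 μM; IC50 uses several concentrations. Values are given as % of maximal achievable inhibition.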

Test [2] addresses T2, rat B1R (bradykinin receptor 1) (Rattus norvegicus, UniProt P97583).
T2 construct: expressed in transfected cells; host or cells: CHO K1 cells
T2 sequence (P97583 1-337): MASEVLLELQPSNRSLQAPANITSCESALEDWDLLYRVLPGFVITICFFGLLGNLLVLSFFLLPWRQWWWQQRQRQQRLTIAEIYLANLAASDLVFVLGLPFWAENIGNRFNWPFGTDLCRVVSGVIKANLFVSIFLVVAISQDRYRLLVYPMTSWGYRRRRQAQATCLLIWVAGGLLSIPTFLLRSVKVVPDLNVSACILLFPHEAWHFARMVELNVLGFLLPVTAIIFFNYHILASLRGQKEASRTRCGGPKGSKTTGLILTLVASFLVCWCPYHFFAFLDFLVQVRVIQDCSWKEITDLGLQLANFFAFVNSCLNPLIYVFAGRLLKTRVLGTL
Nature of the test: FLIPR Ca2+ assay (Fluo-4) on CHO K1 cells stably transfected with the B1R gene of the rat (rB1R cells): % inhibition at 10 μM / IC50, agonist Des-Arg9-bradykinin. Format: cell-based. The note with it: for inhibition at 10 µM: CHO-K1, rat B1R. Summed up:
as §1

The term inhibition denotes the relative decrease from the control value, in per cent.

Structures are written as SMILES.

Turning to `O=C(c1ccc2c(c1)C(N(C(=O)c1ccccc1Cl)C1CC1)CC2)N1CCC2(CC1)CCN(c1ccc(F)cc1)CC2` (stereo not shown) [Ind_CC-115, 2-chloro-N-cyclopropyl-N-[6-[9-(4-fluorophenyl)-3,9-diazaspiro[5.5]undecane-3-carbonyl]-2,3-dihydro-1H-inden-1-yl]-benzamide], the inhibition at 10 µM in test [1] worked out at 22%; in test [2] it was 64%.
Take `CC(C(=O)N[C@@H]1CCc2ccc(C(=O)N3CCC4(CCN(c5ccncc5)CC4)C3)cc21)c1ccccc1Cl` (stereo partly drawn) [Example H-145, 2-(2-Chlorophenyl)-N-[(1R)-6-(8-pyridin-4-yl-3,8-diazaspiro[4.5]decane-3-carbonyl)-2,3-dihydro-H-inden-1-yl]-propionamide]: the inhibition at 10 µM in test [1] stood at 100%; in test [2] it was 101%.
As to `O=C(NC1CCc2ccc(C(=O)N3CCC4(CC3)CCN(c3cccnc3)CC4)cc21)c1sccc1Cl` (stereo not shown) [Ind_CC-102, 3-chloro-N-[6-(9-pyridin-3-yl-3,9-diazaspiro[5.5]undecane-3-carbonyl)-2,3-dihydro-1H-inden-1-yl]-thiophene-2-carboxylic acid amide], the inhibition at 10 µM is 87% in test [1] and 100% in test [2].
Take `CN1CCC(N2CCC3(CCN(C(=O)c4ccc5c(c4)[C@H](NC(=O)c4ccccc4Cl)CC5)CC3)CC2)CC1` [Example H-28, 2-chloro-N-[(1R)-6-[9-(1-methyl-piperidin-4-yl)-3,9-diazaspiro[5.5]undecane-3-carobnyl]-2,3-dihydro-1H-inden-1-yl]-benzamide]: the inhibition at 10 µM in test [1] came to 57%; in test [2], 102%.
The corresponding values for `O=C(c1ccc2c(c1)C(NS(=O)(=O)Cc1ccccc1C(F)(F)F)CC2)N1CCC2(CCN(c3ccncc3)CC2)C1` (stereo not shown) [IND_CC-258, N-[6-(8-Pyridin-4-yl-2,8-diazaspiro[4.5]decane-2-carbonyl)-2,3-dihydro-1H-inden-1-yl]-1-[2-(trifluoromethyl)-phenyl]-methanesulfonic acid amide] are 100% and 95%.
In the case of `O=C(c1ccc2c(c1)[C@H](N1Cc3cccc(Cl)c3C1=O)CC2)N1CCC2(CCN(c3ccncc3)CC2)C1` [Example H-96, 7-Chloro-2-[(1R)-6-(8-pyridin-4-yl-3,8-diazaspiro[4.5]decane-3-carbonyl)-2,3-dihydro-1H-inden-1-yl]-2,3-dihydro-isoindol-1-one], the inhibition at 10 µM in test [1] is 100%; in test [2] it was 104%.
The corresponding values for `CC1(C)Cc2ccc(C(=O)N3CCC4(CC3)CCN(c3ccncc3)CC4)cc2C1NS(=O)(=O)CCc1ccccc1Cl` (stereo not shown) [IND_CC-242, 2-(2-Chlorophenyl)-N-[2,2-dimethyl-6-(9-pyridin-4-yl-3,9-diazaspiro[5.5]-undecane-3-carbonyl)-1,3-dihydro-inden-1-yl]-ethanesulfonic acid amide] are 94% and 101%.
As to `O=C(c1ccc2c(c1)[C@H](N1Cc3cccc(Cl)c3C1=O)CCC2)N1CCC2(CC1)CCN(c1ccncc1)CC2` [Example H-14, 7-chloro-2-[(1R)-7-(9-pyridin-4-yl-3,9-diazaspiro[5.5]undecane-3-carbonyl)-1,2,3,4-tetrahydro-naphthalen-1-yl]-2,3-dihydro-isoindol-1-one], the inhibition at 10 µM in test [1] turned out to be 91%; in test [2], 101%.
`O=C(N[C@@H]1CCCc2cc(F)c(C(=O)N3CCC4(CC3)CCN(c3ccncc3)C4)cc21)c1ccccc1Cl` [Example H-87, 2-Chloro-N-[(1R)-6-fluoro-7-(3-pyridin-4-yl-3,8-diazaspiro[4.5]decane-8-carbonyl)-1,2,3,4-tetrahydro-naphthalen-1-yl]-benzamide]: the inhibition at 10 µM in test [1] was 99%; in test [2], 103%.
The corresponding values for `O=C(c1ccc2c(c1)[C@H](NC(=O)C1(c3ccccc3Cl)CC1)CC2)N1CCC2(CCN(c3ccncc3)CC2)C1` [Example H-148, 1-(2-Chlorophenyl)-N-[(1R)-6-(8-pyridin-4-yl-3,8-diazaspiro[4.5]decane-3-carbonyl)-2,3-dihydro-1H-inden-1-yl]-cyclopropane-1-carboxylic acid amide] are 100% and 101%.
The corresponding values for `CC1(C)CC(NS(=O)(=O)Cc2ccccc2C(F)(F)F)c2cc(C(=O)N3CCC4(CC3)CCN(c3ccncc3)CC4)ccc21` (stereo not shown) [IND_CC-256, N-[3,3-Dimethyl-6-(3-pyridin-4-yl-3,9-diazaspiro[5.5]undecane-9-carbonyl)-1,2-dihydro-inden-1-yl]-1-[2-(trifluoromethyl)-phenyl]-methanesulfonic acid amide] are 99% and 100%.
In the same order, the values of `O=C(c1ccc2c(c1)[C@H](NS(=O)(=O)c1ccccc1Cl)CCC2)N1CCC2(CCN(c3ccncc3)CC2)C1` [Example H-106, 2-Chloro-N-[(1R)-7-(8-pyridin-4-yl-3,8-diazaspiro[4.5]decane-3-carbonyl)-1,2,3,4-tetrahydro-naphthalen-1-yl]-benzenesulfonic acid amide] are 100% and 105%.
On to `CC1(C)Cc2ccc(C(=O)N3CCC4(CC3)CCN(c3ccncc3)CC4)cc2C1NC(=O)c1cc(C(F)(F)F)ccc1Cl` (stereo not shown) [IND_CC-219, 2-Chloro-N-[2,2-dimethyl-6-(9-pyridin-4-yl-3,9-diazaspiro[5.5]undecane-3-carbonyl)-1,3-dihydro-inden-1-yl]-5-(trifluoromethyl)-benzamide], for which the inhibition at 10 µM was found to be 53% in test [1] and 104% in test [2].
For `O=C(N[C@@H]1CCc2ccc(C(=O)N3CCC4(CCN(c5ccncc5)CC4)C3)cc21)c1cc(F)ccc1Cl` [Example H-141, 2-Chloro-5-fluoro-N-[(1R)-6-(8-pyridin-4-yl-3,8-diazaspiro[4.5]decane-3-carbonyl)-2,3-dihydro-1H-inden-1-yl]-benzamide], the inhibition at 10 µM in test [1] was found to be 99%; in test [2], 101%.
Take `O=C(NC1CCc2ccc(C(=O)N3CCC4(CCN(c5ccncc5)CC4)C3)cc21)c1ccccc1Cl` (stereo not shown) [Example H-05, 2-chloro-N-[6-(8-pyridin-4-yl-3,8-diazaspiro[4.5]decane-3-carbonyl)-2,3-dihydro-1H-inden-1-yl]-benzamide]: the “% Inhibition (human B1R) at 10 μM” value in test [1] (human B1R) stood at 100%. In test [2] (rat B1R, 10 µM), the “% Inhibition (rat B1R) at 10 μM” value stood at 105%.
Regarding `Cc1cc(OC(F)(F)F)ccc1C(=O)N(C)C1CCc2ccc(C(=O)N3CCC4(CC3)CCN(c3ccncc3)CC4)cc21` (stereo not shown) [IND_CC-299, N,2-Dimethyl-N-[6-(9-pyridin-4-yl-3,9-diazaspiro[5.5]undecane-3-carbonyl)-2,3-dihydro-1H-inden-1-yl]-4-(trifluoromethyloxy)-benzamide], the inhibition at 10 µM is 27% in test [1] and 106% in test [2].
On to `O=C(N[C@@H]1CCOc2ccc(C(=O)N3CCC4(CC3)CCN(c3ccncc3)CC4)cc21)c1ccccc1Cl` [Example H-58, 2-Chloro-N-[(4R)-6-(9-pyridin-4-yl-3,9-diazaspiro[5.5]undecane-3-carbonyl)-3,4-dihydro-2H-chromen-4-yl]-benzamide], for which the inhibition at 10 µM turned out to be 99% in test [1] and 106% in test [2].
